The source of these data is patent US8686011B2, “Inhibitors of 11-β-hydroxy steroid dehydrogenase type 1” (Amgen Inc., priority 2004, dated 2014).

Molecules are shown by their SMILES. Bounds are passed on as bounds.

T1 sequence (P28845 whole entry): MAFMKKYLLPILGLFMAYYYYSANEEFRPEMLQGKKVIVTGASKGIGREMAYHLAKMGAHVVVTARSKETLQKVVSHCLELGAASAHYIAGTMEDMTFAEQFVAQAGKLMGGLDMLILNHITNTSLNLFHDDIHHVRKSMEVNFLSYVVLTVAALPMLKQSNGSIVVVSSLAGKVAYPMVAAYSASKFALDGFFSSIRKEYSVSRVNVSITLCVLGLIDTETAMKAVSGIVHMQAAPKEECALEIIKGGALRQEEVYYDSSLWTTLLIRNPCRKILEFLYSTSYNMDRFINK

The first experiment addresses T1, 11β-HSD1 (human enzyme) (Homo sapiens, UniProt P28845).
T1 construct: made in house
Description: Enzyme Assay (SPA, 3H-cortisone, purified HSD-1 enzyme prep), human enzyme. Format: biochemical. As to conditions: species of enzyme not given.
The term IC50 denotes the concentration that gives 50% inhibition. As to `C[C@@]1(c2ccccc2)SC(Nc2ccccc2Cl)=NC1=O` [(5S)-2-((2-chlorophenyl)amino)-5-methyl-5-phenyl-1,3-thiazol-4(5H)-one], the concentration for half-maximal inhibition (IC50) was less than 20 nM.

For `CC1(c2ccccc2)SC(Nc2ccccc2Cl)=NC1=O` (centres unmarked) [2-((2-chlorophenyl)amino)-5-methyl-5-phenyl-1,3-thiazol-4(5H)-one], the IC50 was less than 20 nM.

With `CC1([C@H]2CCOC2)SC(NCC2CCCCC2)=NC1=O` (stereo partly drawn) [2-(cyclohexylmethylamino)-5-methyl-5-((S)-tetrahydrofuran-3-yl)thiazol-4(5H)-one], the IC50 was less than 20 nM.

Regarding `CCC1(C)SC(NC23CC4CC(CC(C4)C2)C3)=NC1=O` (centres unmarked) [5-ethyl-5-methyl-2-(tricyclo[3.3.1.1˜3,7˜]dec-1-ylamino)-1,3-thiazol-4(5H)-one], the IC50 is less than 20 nM.

Turning to `O=C1N=C(Nc2ccccc2Cl)SC1C1CCCCC1` (centres unmarked) [2-(2-chlorophenylamino)-5-cyclohexylthiazol-4(5H)-one], the IC50 is less than 20 nM.

As for `C[C@H](NC1=NC(=O)C(C)(c2ccncc2)S1)c1ccccc1F` (stereo partly drawn) [2-((S)-1-(2-fluorophenyl)ethylamino)-5-methyl-5-(pyridin-4-yl)thiazol-4(5H)-one], the IC50 was less than 20 nM.

In turn, `CC1(c2ccncc2)SC(Nc2ccccc2C(F)(F)F)=NC1=O` (centres unmarked) [5-methyl-5-(pyridin-4-yl)-2-(2-(trifluoromethyl)phenylamino)thiazol-4(5H)-one] displayed an IC50 of less than 20 nM.

`CC(C)C1SC(Nc2ccccc2Cl)=NC1=O` (centres unmarked) [2-((2-chlorophenyl)amino)-5-(1-methylethyl)-1,3-thiazol-4(5H)-one] displayed an IC50 of less than 20 nM.

The compound `O=C1N=C(Nc2ccccc2F)SC12CCCC2` [2-((2-fluorophenyl)amino)-1-thia-3-azaspiro[4.4]non-2-en-4-one] gave an IC50 of less than 20 nM.

Regarding `CC(C)C1(C)SC(N[C@@H](C)C2CCCCC2)=NC1=O` (stereo partly drawn) [2-((S)-1-cyclohexylethylamino)-5-isopropyl-5-methylthiazol-4(5H)-one], the IC50 is less than 20 nM.

In the case of `O=C1N=C(NCC2CCCCC2)SC1[C@H]1CCOC1` (stereo partly drawn) [2-(cyclohexylmethylamino)-5-(S)-tetrahydrofuran-3-yl)thiazol-4(5H)-one], the IC50 is less than 20 nM.

Take `Cc1ccc(F)cc1NC1=NC(=O)C(C(C)C)S1` (centres unmarked) [2-((5-fluoro-2-methylphenyl)amino)-5-(1-methylethyl)-1,3-thiazol-4(5H)-one]: the IC50 was less than 20 nM.

In turn, `O=C1N=C(Nc2ccccc2F)SC1C1CCCC1` (centres unmarked) [5-cyclopentyl-2-(2-fluorophenylamino)thiazol-4(5H)-one] gave a 50% inhibitory concentration (IC50) of less than 20 nM.

Compound `CC1(c2ccncc2)SC(Nc2ccccc2Cl)=NC1=O` (centres unmarked) [2-(2-chlorophenylamino)-5-methyl-5-(pyridin-4-yl)thiazol-4(5H)-one] registered an IC50 of less than 20 nM.

Turning to `O=C1N=C(Nc2ccccc2F)SC1[C@H]1CCOC1` (stereo partly drawn) [2-(2-fluorophenylamino)-5-((S)-tetrahydrofuran-3-yl)thiazol-4(5H)-one], the IC50 is less than 20 nM.

`CC1(CC(F)(F)F)SC(N[C@@H]2C[C@H]3CC[C@@H]2C3)=NC1=O` (stereo partly drawn) [2-((1R,2R,4S)-bicyclo[2.2.1]heptan-2-ylamino)-5-methyl-5-(2,2,2-trifluoroethyl)thiazol-4(5H)-one] gave an IC50 of less than 20 nM.

On to `CC(C)C1(C)SC(NC23CC4CC(CC(F)(C4)C2)C3)=NC1=O` (centres unmarked) [2-((3-fluorotricyclo[3.3.1.1˜3,7˜]dec-1-yl)amino)-5-methyl-5-(1-methylethyl)-1,3-thiazol-4(5H)-one], for which the IC50 was less than 20 nM.

`CC1(C2CCOCC2)SC(Nc2ccccc2Cl)=NC1=O` (centres unmarked) [2-(2-chlorophenylamino)-5-methyl-5-(tetrahydro-2H-pyran-4-yl)thiazol-4(5H)-one] came in with an IC50 of less than 20 nM.

For the compound `O=C1N=C(Nc2ccccc2Cl)SC1C1CCCC1` (centres unmarked) [2-(2-chlorophenylamino)-5-cyclopentylthiazol-4(5H)-one], the IC50 is less than 20 nM.

For `CO[C@@H]1CCC[C@@]2(C1)SC(NC1CCCCCCC1)=NC2=O` [(5S,7R)-2-(cyclooctylamino)-7-(methyloxy)-1-thia-3-azaspiro[4.5]dec-2-en-4-one], the IC50 was less than 20 nM.

`C[C@H](NC1=NC(=O)C(C)(c2ccncc2)S1)c1ccc(F)cc1` (stereo partly drawn) [2-((S)-1-(4-fluorophenyl)ethylamino)-5-methyl-5-(pyridin-4-yl)thiazol-4(5H)-one] registered an IC50 of less than 20 nM.

In the case of `CCCC1(C)SC(N[C@@H]2C[C@H]3CC[C@@H]2C3)=NC1=O` (stereo partly drawn) [2-((1R,2R,4S)-bicyclo[2.2.1]heptan-2-ylamino)-5-methyl-5-propylthiazol-4(5H)-one], the IC50 was less than 20 nM.

Turning to `CC(C)[C@@]1(C)SC(Nc2ccccc2Cl)=NC1=O` [(5R)-2-((2-chlorophenyl)amino)-5-methyl-5-(1-methylethyl)-1,3-thiazol-4(5H)-one], the IC50 is less than 20 nM.

The compound `CC(C)C1(C)SC(N[C@H](C)c2ccc(F)cc2)=NC1=O` (stereo partly drawn) [2-((R)-1-(4-fluorophenyl)ethylamino)-5-isopropyl-5-methylthiazol-4(5H)-one] returned an IC50 of less than 20 nM.

For the compound `Cc1c(Cl)cccc1NC1=NC(=O)C(C(C)C)S1` (centres unmarked) [2-((3-chloro-2-methylphenyl)amino)-5-(1-methylethyl)-1,3-thiazol-4(5H)-one], the IC50 is less than 20 nM.

The next experiment relates to intraocular pressure.
Assay: not given
As to conditions: ingestion, normal subjects; cited from earlier work.
For the compound `CC1(C)[C@@H](OC(=O)CCC(=O)O)CC[C@]2(C)[C@H]3C(=O)C=C4[C@@H]5C[C@@](C)(C(=O)O)CC[C@]5(C)CC[C@@]4(C)[C@]3(C)CC[C@@H]12` [carbenoxolone], the “reduction of intraocular pressure” value is 20%.
